# Source: ChEMBL document CHEMBL1138934, “Indenone derivatives: a novel template for peroxisome proliferator-activated receptor gamma (PPARgamma) agonists” (J Med Chem, 2006)
# Target: T1, Peroxisome proliferator-activated receptor alpha (Homo sapiens, UniProt Q07869)
# T1 sequence (Q07869 whole entry): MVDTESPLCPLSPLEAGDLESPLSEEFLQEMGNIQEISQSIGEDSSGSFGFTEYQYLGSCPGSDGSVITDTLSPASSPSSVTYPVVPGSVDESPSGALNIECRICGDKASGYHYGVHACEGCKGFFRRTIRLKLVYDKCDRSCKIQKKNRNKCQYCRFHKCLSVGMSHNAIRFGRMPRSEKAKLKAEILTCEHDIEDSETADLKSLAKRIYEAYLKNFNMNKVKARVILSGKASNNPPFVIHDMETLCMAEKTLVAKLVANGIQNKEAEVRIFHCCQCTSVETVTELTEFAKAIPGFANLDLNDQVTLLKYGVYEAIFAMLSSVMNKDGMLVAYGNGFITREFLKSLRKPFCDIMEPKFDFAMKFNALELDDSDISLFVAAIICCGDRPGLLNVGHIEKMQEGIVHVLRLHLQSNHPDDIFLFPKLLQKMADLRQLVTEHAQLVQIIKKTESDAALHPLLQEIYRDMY
# Experiment: Activity at human PPAR alpha
row,EC50 [nM],Structure (SMILES)
1,> 100000,CCOC(=O)C1=C(c2ccccc2)c2ccc(OC)cc2C1=O

# Target: T2, Peroxisome proliferator-activated receptor gamma (Homo sapiens, UniProt P37231)
# T2 sequence (P37231 whole entry): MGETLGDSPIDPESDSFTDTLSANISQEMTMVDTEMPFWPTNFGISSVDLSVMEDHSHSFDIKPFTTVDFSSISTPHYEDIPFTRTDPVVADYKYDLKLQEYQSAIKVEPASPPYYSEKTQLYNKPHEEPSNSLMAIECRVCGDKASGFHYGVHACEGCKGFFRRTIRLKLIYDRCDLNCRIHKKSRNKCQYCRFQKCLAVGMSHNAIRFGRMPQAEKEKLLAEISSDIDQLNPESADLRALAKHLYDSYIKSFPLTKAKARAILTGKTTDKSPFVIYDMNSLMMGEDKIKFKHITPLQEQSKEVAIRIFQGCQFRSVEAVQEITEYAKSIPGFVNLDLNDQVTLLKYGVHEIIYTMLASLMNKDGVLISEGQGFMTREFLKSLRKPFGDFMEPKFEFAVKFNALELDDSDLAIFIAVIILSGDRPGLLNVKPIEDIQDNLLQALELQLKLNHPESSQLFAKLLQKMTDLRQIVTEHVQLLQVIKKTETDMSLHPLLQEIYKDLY
# Description: Activity at human PPAR gamma transfected in NIH3T3 cells by luciferase activity assay
row,EC50 [nM],Structure (SMILES)
1,2500,CCOC(=O)C1=C(C23CC4CC(CC(C4)C2)C3)c2ccc(OC)cc2C1=O
2,300,CCOC(=O)C1=C(c2ccccc2)c2ccc(OC)cc2C1=O
3,> 10000,CCOC(=O)C1=C(c2ccccc2)c2ccc(OC)cc2C1
4,> 10000,CCOC(=O)C1=C(c2ccccc2)c2ccc(OC)cc2/C1=N/O
5,1000,CCOC(=O)C1=C(c2ccoc2)c2ccc(OC)cc2C1=O

row,Structure (SMILES),EC50 [nM]
1,CCOC(=O)C1=C(c2ccccc2)c2ccc(OCCCc3ccccc3)cc2C1=O,50
2,CCOC(=O)CC1=C(c2ccccc2)c2ccc(OC)cc2C1=O,300
3,CCOC(=O)C1=C(c2ccccc2)c2ccc(OCCc3ccccc3)cc2C1=O,210
4,CCOC(=O)C1=C(c2ccccc2)c2ccc(OCc3ccccc3)cc2C1=O,220
